Measurements from article PMC6199744, “Development of Chemical Proteomics for the Folateome and Analysis of the Kinetoplastid Folateome” (ACS Infectious Diseases, 2018).
Where two headings read alike, the source gives them in different places.

Assays:
Type in all cases: binding
[1] = target: T1, HeLa cell extract proteins (Homo sapiens, UniProt O95197)
T1 construct: endogenous in cells; host or cells: HeLa cell extract
T1 sequence (O95197 1-1032): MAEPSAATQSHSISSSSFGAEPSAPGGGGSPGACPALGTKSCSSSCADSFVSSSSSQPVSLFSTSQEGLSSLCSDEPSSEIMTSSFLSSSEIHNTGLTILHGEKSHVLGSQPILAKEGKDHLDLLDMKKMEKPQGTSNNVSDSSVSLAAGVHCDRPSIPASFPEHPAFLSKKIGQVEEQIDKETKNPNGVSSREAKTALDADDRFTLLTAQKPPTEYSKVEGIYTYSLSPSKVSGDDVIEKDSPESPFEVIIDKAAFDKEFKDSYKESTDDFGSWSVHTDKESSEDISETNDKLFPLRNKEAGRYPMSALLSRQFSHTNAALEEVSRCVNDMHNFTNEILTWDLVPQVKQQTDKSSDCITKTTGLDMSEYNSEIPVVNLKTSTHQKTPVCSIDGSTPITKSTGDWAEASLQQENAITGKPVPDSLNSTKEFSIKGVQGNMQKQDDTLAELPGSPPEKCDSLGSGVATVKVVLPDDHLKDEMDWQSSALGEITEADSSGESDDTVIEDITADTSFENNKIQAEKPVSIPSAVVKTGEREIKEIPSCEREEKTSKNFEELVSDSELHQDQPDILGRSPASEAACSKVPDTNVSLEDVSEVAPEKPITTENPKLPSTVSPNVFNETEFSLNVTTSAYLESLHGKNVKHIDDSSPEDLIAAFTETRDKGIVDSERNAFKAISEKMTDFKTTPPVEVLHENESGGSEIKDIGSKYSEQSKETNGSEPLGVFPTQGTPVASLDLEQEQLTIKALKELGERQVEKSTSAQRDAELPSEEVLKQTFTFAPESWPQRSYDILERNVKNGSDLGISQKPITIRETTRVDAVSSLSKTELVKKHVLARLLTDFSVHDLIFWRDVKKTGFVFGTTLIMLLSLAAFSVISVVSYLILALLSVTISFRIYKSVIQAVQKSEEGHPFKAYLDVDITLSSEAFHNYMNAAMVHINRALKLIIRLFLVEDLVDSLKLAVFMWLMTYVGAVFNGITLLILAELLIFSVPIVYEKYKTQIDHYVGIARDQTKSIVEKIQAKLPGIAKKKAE

[2] = target: T2, HeLa cell extract proteins (Homo sapiens, UniProt P06730)
T2 construct: endogenous in cells; host or cells: HeLa cell extract

[3] = target: T3, HeLa cell extract proteins (Homo sapiens, UniProt P30101)
T3 construct: endogenous in cells; host or cells: HeLa cell extract
T3 sequence (P30101 25-505): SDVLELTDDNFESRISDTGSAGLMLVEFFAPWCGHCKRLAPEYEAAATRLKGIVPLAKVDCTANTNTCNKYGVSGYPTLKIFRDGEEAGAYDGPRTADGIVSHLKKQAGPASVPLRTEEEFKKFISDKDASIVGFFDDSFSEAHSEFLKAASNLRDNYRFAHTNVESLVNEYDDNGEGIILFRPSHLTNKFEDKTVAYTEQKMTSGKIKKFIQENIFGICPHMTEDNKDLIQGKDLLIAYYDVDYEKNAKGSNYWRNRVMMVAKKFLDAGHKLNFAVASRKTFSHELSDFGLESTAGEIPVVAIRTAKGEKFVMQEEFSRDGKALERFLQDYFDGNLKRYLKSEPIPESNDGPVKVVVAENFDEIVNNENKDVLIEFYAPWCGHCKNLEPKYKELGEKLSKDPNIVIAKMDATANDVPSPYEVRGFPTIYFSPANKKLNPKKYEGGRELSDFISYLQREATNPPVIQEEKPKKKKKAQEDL

[4] = target: T4, HeLa cell extract proteins (Homo sapiens, UniProt Q12769)
T4 construct: endogenous in cells; host or cells: HeLa cell extract
T4 sequence (Q12769 1-1436): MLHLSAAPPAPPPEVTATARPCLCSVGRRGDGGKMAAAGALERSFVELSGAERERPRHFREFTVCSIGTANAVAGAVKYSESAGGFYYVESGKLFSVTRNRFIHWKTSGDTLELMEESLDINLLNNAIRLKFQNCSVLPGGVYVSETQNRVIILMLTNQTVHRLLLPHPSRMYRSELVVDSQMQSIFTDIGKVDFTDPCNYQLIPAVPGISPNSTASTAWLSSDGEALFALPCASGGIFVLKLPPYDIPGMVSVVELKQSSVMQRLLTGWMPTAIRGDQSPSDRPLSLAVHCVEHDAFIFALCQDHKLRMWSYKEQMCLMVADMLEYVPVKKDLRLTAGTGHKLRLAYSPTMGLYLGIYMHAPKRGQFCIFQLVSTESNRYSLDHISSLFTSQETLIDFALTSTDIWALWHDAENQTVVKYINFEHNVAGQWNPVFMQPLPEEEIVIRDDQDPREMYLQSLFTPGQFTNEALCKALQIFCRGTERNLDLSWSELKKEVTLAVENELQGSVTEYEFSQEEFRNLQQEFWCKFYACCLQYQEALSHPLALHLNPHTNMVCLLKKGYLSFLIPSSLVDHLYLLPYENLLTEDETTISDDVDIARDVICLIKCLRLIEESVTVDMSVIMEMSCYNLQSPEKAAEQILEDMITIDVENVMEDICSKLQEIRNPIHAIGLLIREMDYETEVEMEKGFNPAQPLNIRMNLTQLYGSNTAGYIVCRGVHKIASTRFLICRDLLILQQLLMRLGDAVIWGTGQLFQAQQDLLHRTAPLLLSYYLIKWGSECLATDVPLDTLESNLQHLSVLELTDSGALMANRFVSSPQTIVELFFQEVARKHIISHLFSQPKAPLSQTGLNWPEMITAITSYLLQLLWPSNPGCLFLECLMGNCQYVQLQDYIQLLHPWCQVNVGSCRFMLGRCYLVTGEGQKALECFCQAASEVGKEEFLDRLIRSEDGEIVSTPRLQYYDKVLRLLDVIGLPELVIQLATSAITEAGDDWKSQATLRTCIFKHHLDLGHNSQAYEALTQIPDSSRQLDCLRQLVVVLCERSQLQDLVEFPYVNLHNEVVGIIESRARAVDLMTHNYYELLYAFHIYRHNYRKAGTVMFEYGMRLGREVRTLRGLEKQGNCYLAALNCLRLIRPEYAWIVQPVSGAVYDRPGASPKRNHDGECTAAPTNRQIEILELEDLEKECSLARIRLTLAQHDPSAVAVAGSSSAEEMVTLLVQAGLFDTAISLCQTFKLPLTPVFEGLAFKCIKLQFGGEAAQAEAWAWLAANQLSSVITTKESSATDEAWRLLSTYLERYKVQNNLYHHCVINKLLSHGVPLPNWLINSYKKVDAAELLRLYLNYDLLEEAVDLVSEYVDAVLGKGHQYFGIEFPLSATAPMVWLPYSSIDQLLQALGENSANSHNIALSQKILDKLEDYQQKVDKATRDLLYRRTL

T2 sequence (P06730 whole entry): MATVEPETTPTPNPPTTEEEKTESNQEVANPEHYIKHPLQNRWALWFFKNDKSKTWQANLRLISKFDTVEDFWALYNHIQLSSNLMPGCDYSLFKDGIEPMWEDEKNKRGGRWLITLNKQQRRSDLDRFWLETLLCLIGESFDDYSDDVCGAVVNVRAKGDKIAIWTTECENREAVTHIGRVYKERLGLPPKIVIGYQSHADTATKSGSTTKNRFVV

Nc1nc2cccc(-c3ccccc3)c2n1Cc1ccc(Cl)c(Cl)c1 [compound 3]
fold changes relative to vehicle control ([1]; protein RTN3, HeLa): 0.9 | fold changes relative to vehicle control ([2]; HeLa, protein EIF4E): 1 | fold changes relative to vehicle control ([3]; protein PDIA3, HeLa): 0.85 | fold changes relative to vehicle control ([4]; HeLa, protein NUP160): 1.2

Nc1nc2[nH]cc(CCc3ccc(C(=O)N[C@@H](CCC(=O)O)C(=O)O)cc3)c2c(=O)[nH]1 [PTX, pemetrexed]
fold changes relative to vehicle control [1]: 0.85 | fold changes relative to vehicle control [2]: 0.99 | fold changes relative to vehicle control [3]: 0.97 | fold changes relative to vehicle control [4]: 1.07

Nc1nc2c(c(=O)[nH]1)N(C=O)C(CNc1ccc(C(=O)N[C@@H](CCC(=O)O)C(=O)O)cc1)CN2 (stereo partly shown) [LEU, leucovorin]
fold changes relative to vehicle control ([1]; protein RTN3, HeLa): 0.97 | fold changes relative to vehicle control ([2]; HeLa, captured protein EIF4E): 1.09 | fold changes relative to vehicle control ([3]; protein PDIA3, HeLa): 0.94 | fold changes relative to vehicle control ([4]; HeLa, captured protein NUP160): 1.02

CCCCCCOc1cccc(Cc2cnc(N)nc2N)c1 [compound 2]
fold changes relative to vehicle control ([1]; protein RTN3, HeLa): 1.14 | fold changes relative to vehicle control ([2]; HeLa, protein EIF4E): 0.97 | fold changes relative to vehicle control ([3]; protein PDIA3, HeLa): 1.79 | fold changes relative to vehicle control ([4]; HeLa, protein NUP160): 1.11

NCCOCCOCC(=O)Nc1nc2ncc(CNc3ccc(C(=O)NC(CCC(=O)O)C(=O)O)cc3)nc2c(=O)[nH]1 (stereo not shown) [compound 6]
fold changes relative to vehicle control ([1]; protein RTN3, HeLa): 0.94 | fold changes relative to vehicle control ([2]; HeLa, captured protein EIF4E): 1.03 | fold changes relative to vehicle control ([3]; protein PDIA3, HeLa): 1.15 | fold changes relative to vehicle control ([4]; HeLa, captured protein NUP160): 1.14

CCCCCCOc1ccc(Cc2cnc(N)nc2N)cc1 [compound 1]
fold changes relative to vehicle control ([1]; protein RTN3, HeLa): 1 | fold changes relative to vehicle control ([2]; HeLa, protein EIF4E): 0.94 | fold changes relative to vehicle control ([3]; protein PDIA3, HeLa): 1.19 | fold changes relative to vehicle control ([4]; HeLa, protein NUP160): 1.03

NCCCNc1ccc(C(=O)NC(CCC(=O)O)C(=O)O)cc1 (stereo not shown) [compound 7]
fold changes relative to vehicle control ([1]; protein RTN3, HeLa): 0.84 | fold changes relative to vehicle control ([2]; HeLa, captured protein EIF4E): 1.1 | fold changes relative to vehicle control ([3]; protein PDIA3, HeLa): 0.85 | fold changes relative to vehicle control ([4]; HeLa, captured protein NUP160): 1.12
